# Assay results taken from publication PMC9021288 (Nature Communications, 2022).
# Where two headings read alike, the source gives them in different places.
# Tests used:
# [1] = system: TA98, TA100, TA102, TA1535, TA1537
# Method: Safety studies were performed by commercial services using their standard protocols. […] Genotoxicity was investigated using the Ames test (Bacterial Reverse Mutation Assay) (Covance Laboratories Ltd, North Yorkshire, England). In vitro mammalian cell micronucleus screening assay was studied in human peripheral blood lymphocytes (BioReliance Corporation, Rockville, USA). Cardiotoxicity was determined against the hERG channel in an automated patch clamp assay using the Qpatch or against the hNaV 1.5, hKV 1.5 and hCaV 1.2 using a manual patch-clamp technique (Metrion Biosciences, Cambridge, UK). Cytotoxicity in human and rat primary hepatocytes was assessed using the CellTiter-Blue assay performed by commercial services (KaLy-Cell). The viability of HepG2 cells was monitored through the addition of 1 mM resazurin. Following 6 h incubation, the relative amount of reduced resazurin was detected in a fluorimeter and compared to the assay controls (vehicle: 0.1% DMSO and positive control: 10 µM puromycin).
# dog primary hepatocytes = experiment: Hepatocyte stability, dog; format: in vitro ADME
smiles,measurement,setting,value
C[C@@H](CNC(=O)[C@H](O)C(C)(C)CO)NC(=O)c1cc(F)c(F)cc1F [MMV693183],Fold Increase,"[1]; TA102, -S-9, 16 ug/plate",1.1
same,Mean (Revertant Numbers Per Plate),"[1]; TA102, -S-9, 16 ug/plate",251.3
same,Fold Increase,"[1]; TA102, -S-9, 50 ug/plate",1.1
same,Mean (Revertant Numbers Per Plate),"[1]; TA102, -S-9, 50 ug/plate",256.3
same,Fold Increase,"[1]; TA102, -S-9, 160 ug/plate",1
same,Mean (Revertant Numbers Per Plate),"[1]; TA102, -S-9, 160 ug/plate",240
same,Fold Increase,"[1]; TA102, -S-9, 500 ug/plate",0.9
same,Mean (Revertant Numbers Per Plate),"[1]; TA102, -S-9, 500 ug/plate",202.7
same,Fold Increase,"[1]; TA102, -S-9, 1600 ug/plate",0.8
same,Mean (Revertant Numbers Per Plate),"[1]; TA102, -S-9, 1600 ug/plate",181.7
same,Fold Increase,"[1]; TA102, -S-9, 5000 ug/plate",0.1
same,Mean (Revertant Numbers Per Plate),"[1]; TA102, -S-9, 5000 ug/plate",26.7
same,Fold Increase,"[1]; TA1535, +S-9, 5 ug/plate",0.9
same,Mean (Revertant Numbers Per Plate),"[1]; TA1535, +S-9, 5 ug/plate",20.7
same,Fold Increase,"[1]; TA1535, +S-9, 16 ug/plate",0.8
same,Mean (Revertant Numbers Per Plate),"[1]; TA1535, +S-9, 16 ug/plate",19.3
same,Fold Increase,"[1]; TA1535, +S-9, 50 ug/plate",1
same,Mean (Revertant Numbers Per Plate),"[1]; TA1535, +S-9, 50 ug/plate",23.3
same,Fold Increase,"[1]; TA1535, +S-9, 160 ug/plate",1.1
same,Mean (Revertant Numbers Per Plate),"[1]; TA1535, +S-9, 160 ug/plate",25
same,Fold Increase,"[1]; TA1535, +S-9, 500 ug/plate",0.8
same,Mean (Revertant Numbers Per Plate),"[1]; TA1535, +S-9, 500 ug/plate",17.7
same,Fold Increase,"[1]; TA1535, +S-9, 1600 ug/plate",1
same,Mean (Revertant Numbers Per Plate),"[1]; TA1535, +S-9, 1600 ug/plate",24
same,Fold Increase,"[1]; TA1535, +S-9, 5000 ug/plate",1
same,Mean (Revertant Numbers Per Plate),"[1]; TA1535, +S-9, 5000 ug/plate",22.7
same,Fold Increase,"[1]; TA1535, -S-9, 5 ug/plate",1.4
same,Mean (Revertant Numbers Per Plate),"[1]; TA1535, -S-9, 5 ug/plate",35
same,Fold Increase,"[1]; TA1535, -S-9, 16 ug/plate",0.8
same,Mean (Revertant Numbers Per Plate),"[1]; TA1535, -S-9, 16 ug/plate",20.7
same,Fold Increase,"[1]; TA1535, -S-9, 50 ug/plate",0.9
same,Mean (Revertant Numbers Per Plate),"[1]; TA1535, -S-9, 50 ug/plate",22
same,Fold Increase,"[1]; TA1535, -S-9, 160 ug/plate",0.9
same,Mean (Revertant Numbers Per Plate),"[1]; TA1535, -S-9, 160 ug/plate",24
same,Fold Increase,"[1]; TA1535, -S-9, 500 ug/plate",1.2
same,Mean (Revertant Numbers Per Plate),"[1]; TA1535, -S-9, 500 ug/plate",29.3
same,Fold Increase,"[1]; TA1535, -S-9, 1600 ug/plate",1
same,Mean (Revertant Numbers Per Plate),"[1]; TA1535, -S-9, 1600 ug/plate",26
same,Fold Increase,"[1]; TA1535, -S-9, 5000 ug/plate",0.9
same,Mean (Revertant Numbers Per Plate),"[1]; TA1535, -S-9, 5000 ug/plate",22
same,difference in revertant numbers vs control,"[1]; TA1535, TA1537",< 3 fold
same,Fold Increase,"[1]; TA1537, +S-9, 5 ug/plate",1.4
same,Mean (Revertant Numbers Per Plate),"[1]; TA1537, +S-9, 5 ug/plate",10
same,Fold Increase,"[1]; TA1537, +S-9, 16 ug/plate",1.1
same,Mean (Revertant Numbers Per Plate),"[1]; TA1537, +S-9, 16 ug/plate",7.7
same,Fold Increase,"[1]; TA1537, +S-9, 50 ug/plate",1.9
same,Mean (Revertant Numbers Per Plate),"[1]; TA1537, +S-9, 50 ug/plate",13.3
same,Fold Increase,"[1]; TA1537, +S-9, 160 ug/plate",1
same,Mean (Revertant Numbers Per Plate),"[1]; TA1537, +S-9, 160 ug/plate",7.3
same,Fold Increase,"[1]; TA1537, +S-9, 500 ug/plate",1.6
same,Mean (Revertant Numbers Per Plate),"[1]; TA1537, +S-9, 500 ug/plate",11
same,Fold Increase,"[1]; TA1537, +S-9, 1600 ug/plate",1.4
same,Mean (Revertant Numbers Per Plate),"[1]; TA1537, +S-9, 1600 ug/plate",9.7
same,Fold Increase,"[1]; TA1537, +S-9, 5000 ug/plate",1
same,Mean (Revertant Numbers Per Plate),"[1]; TA1537, +S-9, 5000 ug/plate",7.3
same,Fold Increase,"[1]; TA1537, -S-9, 5 ug/plate",1.1
same,Mean (Revertant Numbers Per Plate),"[1]; TA1537, -S-9, 5 ug/plate",7.7
same,Fold Increase,"[1]; TA1537, -S-9, 16 ug/plate",0.9
same,Mean (Revertant Numbers Per Plate),"[1]; TA1537, -S-9, 16 ug/plate",6.3
same,Fold Increase,"[1]; TA1537, -S-9, 50 ug/plate",1
same,Mean (Revertant Numbers Per Plate),"[1]; TA1537, -S-9, 50 ug/plate",6.7
same,Fold Increase,"[1]; TA1537, -S-9, 160 ug/plate",0.8
same,Mean (Revertant Numbers Per Plate),"[1]; TA1537, -S-9, 160 ug/plate",5.3
same,Fold Increase,"[1]; TA1537, -S-9, 500 ug/plate",1
same,Mean (Revertant Numbers Per Plate),"[1]; TA1537, -S-9, 500 ug/plate",7.3
same,Fold Increase,"[1]; TA1537, -S-9, 1600 ug/plate",0.9
same,Mean (Revertant Numbers Per Plate),"[1]; TA1537, -S-9, 1600 ug/plate",6
same,Fold Increase,"[1]; TA1537, -S-9, 5000 ug/plate",0.6
same,Mean (Revertant Numbers Per Plate),"[1]; TA1537, -S-9, 5000 ug/plate",4
same,Compound Remaining (% of 0 min),dog primary hepatocytes; 0 min,100%
same,Compound Remaining (% of 0 min),dog primary hepatocytes; 5 min,92.3%
same,Compound Remaining (% of 0 min),dog primary hepatocytes; 10 min,91.7%
same,Compound Remaining (% of 0 min),dog primary hepatocytes; 20 min,92.7%
same,Compound Remaining (% of 0 min),dog primary hepatocytes; 40 min,85.2%
same,Compound Remaining (% of 0 min),dog primary hepatocytes; 60 min,83.9%
